Columns and labels:
Test in all cases: relative viability vs DMSO control (72 h) (fraction); higher = more viable cells
[1] = system: SW684
Procedure, shortened: (§1)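 Relative viability is percent growth read by ATPLite and averaged over up to triplicate wells. Sarcoma cells were seeded in 384-well plates to reach 80–90% confluence and given 2.5 µl of serially diluted compound after 24 h, from source plates of 10 mM to 0.0002 mM. Incubation lasted 72 h at 37 °C, 5% CO2, with 0.1% DMSO vehicle and a 5 µM positive control, and the data were rescaled so 1 equals full and 0 equals none.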

[2] = system: A204
Procedure, shortened: as §1

[3] = system: SK-ES-1
Procedure, shortened: as §1

[4] = system: G401
Procedure, shortened: as §1

[5] = system: SK-LMS-1
Procedure, shortened: as §1

[6] = system: HS729
Procedure, shortened: as §1

[7] = system: SW872
Procedure, shortened: as §1

[8] = system: MES-SA
Procedure, shortened: as §1

[9] = system: SYO-1
Procedure, shortened: as §1

[10] = system: SW1353
Procedure, shortened: as §1

[11] = system: SW982
Procedure, shortened: as §1

[12] = system: KHOS-240S
Procedure, shortened: as §1

CN(C)CCCOc1ccc(-c2ccc3ncc4c(c3c2)n(C2CCOCC2)c(=O)n4C)cn1 [AZD-0156]
Details | relative viability
[1], 0.00017 µM | 1.16
[1], 0.00051 µM | 1.17
[1], 0.00152 µM | 1.17
[1], 0.00457 µM | 1.19
[1], 0.01372 µM | 1.13
[1], 0.04115 µM | 1.16
[1], 0.1235 µM | 0.994
[1], 0.3704 µM | 0.963
[1], 1.111 µM | 0.835
[1], 3.333 µM | 0.918
[1], 10 µM | 0.788
[2], 0.00017 µM | 1.08
[2], 0.00051 µM | 1.1
[2], 0.00152 µM | 1.07
[2], 0.00457 µM | 1.1
[2], 0.01372 µM | 1.04
[2], 0.04115 µM | 1.01
[2], 0.1235 µM | 0.919
[2], 0.3704 µM | 0.84
[2], 1.111 µM | 0.704
[2], 3.333 µM | 0.766
[2], 10 µM | 0.628
[3], 0.00017 µM | 1.07
[3], 0.00051 µM | 1.06
[3], 0.00152 µM | 0.963
[3], 0.00457 µM | 1
[3], 0.01372 µM | 0.828
[3], 0.04115 µM | 0.815
[3], 0.1235 µM | 0.734
[3], 0.3704 µM | 0.643
[3], 1.111 µM | 0.59
[3], 3.333 µM | 0.626
[3], 10 µM | 0.522
[4], 0.00017 µM | 1.08
[4], 0.00051 µM | 1.06
[4], 0.00152 µM | 1.06
[4], 0.00457 µM | 1.05
[4], 0.01372 µM | 1.06
[4], 0.04115 µM | 1.05
[4], 0.1235 µM | 1.03
[4], 0.3704 µM | 1.01
[4], 1.111 µM | 0.968
[4], 3.333 µM | 1.01
[4], 10 µM | 0.9515
[5], 0.00017 µM | 0.969
[5], 0.00051 µM | 1.01
[5], 0.00152 µM | 0.962
[5], 0.00457 µM | 0.976
[5], 0.01372 µM | 0.891
[5], 0.04115 µM | 0.881
[5], 0.1235 µM | 0.7368
[5], 0.3704 µM | 0.743
[5], 1.111 µM | 0.665
[5], 3.333 µM | 0.7995
[5], 10 µM | 0.674
[6], 0.00017 µM | 1
[6], 0.00051 µM | 1.02
[6], 0.00152 µM | 1.01
[6], 0.00457 µM | 0.968
[6], 0.01372 µM | 0.937
[6], 0.04115 µM | 0.9191
[6], 0.1235 µM | 0.857
[6], 0.3704 µM | 0.833
[6], 1.111 µM | 0.766
[6], 3.333 µM | 0.758
[6], 10 µM | 0.519
[7], 0.00017 µM | 1.06
[7], 0.00051 µM | 1.05
[7], 0.00152 µM | 1.06
[7], 0.00457 µM | 1.03
[7], 0.01372 µM | 0.941
[7], 0.04115 µM | 0.892
[7], 0.1235 µM | 0.808
[7], 0.3704 µM | 0.654
[7], 1.111 µM | 0.476
[7], 3.333 µM | 0.398
[7], 10 µM | 0.26
[8], 0.00017 µM | 1.023
[8], 0.00051 µM | 1.02
[8], 0.00152 µM | 0.955
[8], 0.00457 µM | 1.02
[8], 0.01372 µM | 0.935
[8], 0.04115 µM | 0.97
[8], 0.1235 µM | 0.901
[8], 0.3704 µM | 0.813
[8], 1.111 µM | 0.716
[8], 3.333 µM | 0.848
[8], 10 µM | 0.654
[9], 0.00017 µM | 1
[9], 0.00051 µM | 1.01
[9], 0.00152 µM | 0.983
[9], 0.00457 µM | 0.949
[9], 0.01372 µM | 0.869
[9], 0.04115 µM | 0.891
[9], 0.1235 µM | 0.737
[9], 0.3704 µM | 0.701
[9], 1.111 µM | 0.534
[9], 3.333 µM | 0.526
[9], 10 µM | 0.259
[10], 0.00017 µM | 1.1
[10], 0.00051 µM | 1.07
[10], 0.00152 µM | 1.05
[10], 0.00457 µM | 1.07
[10], 0.01372 µM | 1.01
[10], 0.04115 µM | 1.02
[10], 0.1235 µM | 0.97
[10], 0.3704 µM | 0.951
[10], 1.111 µM | 0.883
[10], 3.333 µM | 0.949
[10], 10 µM | 0.865
[11], 0.00017 µM | 1.05
[11], 0.00051 µM | 1.08
[11], 0.00152 µM | 1.06
[11], 0.00457 µM | 1.05
[11], 0.01372 µM | 1.03
[11], 0.04115 µM | 0.964
[11], 0.1235 µM | 0.828
[11], 0.3704 µM | 0.619
[11], 1.111 µM | 0.484
[11], 3.333 µM | 0.349
[11], 10 µM | 0.218
[12], 0.00017 µM | 1.08
[12], 0.00051 µM | 1.1
[12], 0.00152 µM | 1.1
[12], 0.00457 µM | 1.08
[12], 0.01372 µM | 1.06
[12], 0.04115 µM | 1.03
[12], 0.1235 µM | 1.04
[12], 0.3704 µM | 0.99
[12], 1.111 µM | 0.865
[12], 3.333 µM | 0.814
[12], 10 µM | 0.587
